Reference: patent US11279681B2, “3-alkyl bicyclic [4,5,0] hydroxamic acids as HDAC inhibitors” (Valo Health, Inc., priority 2015, dated 2022)

Biological target: T1, HDAC6 (Homo sapiens, UniProt Q9UBN7)
T1 sequence (Q9UBN7 1-1215): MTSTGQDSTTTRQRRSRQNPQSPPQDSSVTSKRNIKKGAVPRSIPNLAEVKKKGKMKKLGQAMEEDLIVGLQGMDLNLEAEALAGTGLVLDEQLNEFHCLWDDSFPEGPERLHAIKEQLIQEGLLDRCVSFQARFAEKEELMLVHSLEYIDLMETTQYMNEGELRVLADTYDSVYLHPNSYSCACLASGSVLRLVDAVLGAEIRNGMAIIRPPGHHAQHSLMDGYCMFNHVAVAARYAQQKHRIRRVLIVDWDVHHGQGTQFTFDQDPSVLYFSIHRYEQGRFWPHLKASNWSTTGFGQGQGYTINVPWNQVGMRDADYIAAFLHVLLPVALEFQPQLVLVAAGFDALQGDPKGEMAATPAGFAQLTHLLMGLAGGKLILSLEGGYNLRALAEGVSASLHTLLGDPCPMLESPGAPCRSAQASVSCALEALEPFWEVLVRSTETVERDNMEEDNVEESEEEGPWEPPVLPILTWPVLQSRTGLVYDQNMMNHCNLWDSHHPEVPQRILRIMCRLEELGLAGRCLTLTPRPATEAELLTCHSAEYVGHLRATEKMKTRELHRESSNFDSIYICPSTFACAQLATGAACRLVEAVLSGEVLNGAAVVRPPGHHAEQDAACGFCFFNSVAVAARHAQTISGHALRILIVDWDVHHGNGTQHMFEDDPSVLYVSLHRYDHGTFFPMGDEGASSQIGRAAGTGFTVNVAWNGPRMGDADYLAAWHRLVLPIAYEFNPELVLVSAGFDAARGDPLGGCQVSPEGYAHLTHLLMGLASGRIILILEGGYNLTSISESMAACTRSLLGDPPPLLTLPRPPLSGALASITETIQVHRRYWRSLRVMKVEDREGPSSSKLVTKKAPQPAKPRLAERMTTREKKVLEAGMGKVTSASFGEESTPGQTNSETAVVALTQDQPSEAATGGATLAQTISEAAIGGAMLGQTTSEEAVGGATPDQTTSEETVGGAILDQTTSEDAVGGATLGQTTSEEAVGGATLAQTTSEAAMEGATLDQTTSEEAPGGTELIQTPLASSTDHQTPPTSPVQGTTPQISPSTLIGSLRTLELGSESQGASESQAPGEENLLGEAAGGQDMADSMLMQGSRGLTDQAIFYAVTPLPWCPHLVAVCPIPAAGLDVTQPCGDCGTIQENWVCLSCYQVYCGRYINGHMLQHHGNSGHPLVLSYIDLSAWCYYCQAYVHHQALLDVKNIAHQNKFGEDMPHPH
Experiment: In vitro histone deacetylase assay: enzymatic HDAC6 electrophoretic mobility shift assay
Type: biochemical
Settings: full length human recombinant HDAC6, 1 nM enzyme, 2 μM peptide substrate RHKK(Ac)-NH2, 25° C.; read-out: Inhibitory Concentration (IC50) Values for Representative Compounds against HDAC6, Activity Range

| IC50 | Compound |
| --- | --- |
| ≤ 100 nM | C[C@H]1COc2cc(C(=O)NO)ccc2CN1C(=O)N1Cc2ccccc2C1 [(S)-N-hydroxy-4-(isoindoline-2-carbonyl)-3-methyl-2,3,4,5-tetrahydrobenzo[f][1,4]oxazepine-8-carboxamide] |
| 100 to 500 nM | COc1ccc(NC(=O)N2Cc3ccc(C(=O)NO)cc3OC[C@H]2C)cc1 |
| 100 to 500 nM | O=C1CN(Cc2cc(F)ccc2F)Cc2cc(C(=O)NO)ccc2N1 |
| > 500 nM | O=C(NO)c1ccc2c(c1)CN(Cc1nc3ccccc3[nH]1)CCO2 |

The remaining lines, values behind:

| Compound | IC50 |
| --- | --- |
| COC1CN(C(=O)N2Cc3ccc(C(=O)NO)cc3OC[C@@H]2C)C1 [(S)-N-hydroxy-4-(3-methoxyazetidine-1-carbonyl)-3-methyl-2,3,4,5-tetrahydrobenzo[f][1,4]oxazepine-8-carboxamide] | ≤ 100 nM |
| COc1ccc(S(=O)(=O)N2CCOc3cc(C(=O)NO)ccc3C2)cc1 | 100 to 500 nM |
| C[C@H]1COc2cc(C(=O)NO)ccc2CN1C(=O)N1C[C@H]2CC[C@H](C1)O2 [(S)-4-((1R,5R)-8-oxa-3-azabicyclo[3.2.1]octane-3-carbonyl)-N-hydroxy-3-methyl-2,3,4,5-tetrahydrobenzo[f][1,4]oxazepine-8-carboxamide] | ≤ 100 nM |
| COc1ccc(CN2CCOc3cc(C(=O)NO)ccc3C2)nc1 | 100 to 500 nM |
